Laboratory results reported in US20230298697A1, “DETERMINING VIABILITY AND TREATMENT OF DISEASE AGENTS” (priority 2022, published 2023).
Values after ≈ are worked out from the molar mass of the structure shown. Values joined by “and” are separate entries in the source; they are usually repeats but may differ in a detail not shown here. Identical values can stand only once.

Tests used:
[1] = test system: Mycobacterium tuberculosis H37Rv; experiment: Time-kill assay (CFU counting); type: cell-based; conditions: for CFUs /ml (10^6) h0: h0 (start of treatment); for Relative CFUs (log10) h72: h72 relative to h0
[2] = test system: Mycobacterium tuberculosis H37Rv; conditions: compared with other frontline drugs; stated as known; cited from earlier work
[3] = test system: Mycobacterium tuberculosis H37Rv; experiment: Minimum Inhibitory Concentration 50 (MIC50) determination; type: cell-based; conditions: OD600 growth inhibition, 72 hours, 7H9-rich media

COc1nc2ccc(Br)cc2cc1[C@@H](c1ccccc1)[C@@](O)(CCN(C)C)c1cccc2ccccc12 [BDQ, Bedaquiline]
CFUs /ml (10^6) h0 ([1]; 1.15 µg/ml): 61 CFUs /ml (10^6) and 69 CFUs /ml (10^6) and 72 CFUs /ml (10^6)
CFUs /ml (10^6) h24 ([1]; 1.15 µg/ml): 91 CFUs /ml (10^6) and 96 CFUs /ml (10^6) and 101 CFUs /ml (10^6)
CFUs /ml (10^6) h72 ([1]; 1.15 µg/ml): 352 CFUs /ml (10^6) and 362 CFUs /ml (10^6) and 346 CFUs /ml (10^6)
Relative CFUs (log10) h72 ([1]; 1.15 µg/ml): 0.761 log10 and 0.72 log10 and 0.682 log10
CFUs /ml (10^6) h0 ([1]; 5.75 µg/ml): 55 CFUs /ml (10^6) and 53 CFUs /ml (10^6) and 61 CFUs /ml (10^6)
CFUs /ml (10^6) h24 ([1]; 5.75 µg/ml): 97 CFUs /ml (10^6) and 81 CFUs /ml (10^6) and 100 CFUs /ml (10^6)
CFUs /ml (10^6) h72 ([1]; 5.75 µg/ml): 115 CFUs /ml (10^6) and 132 CFUs /ml (10^6) and 96 CFUs /ml (10^6)
Relative CFUs (log10) h72 ([1]; 5.75 µg/ml): 0.32 log10 and 0.396 log10 and 0.197 log10
speed of killing of Mycobacterium tuberculosis [2]: kills Mycobacterium tuberculosis relatively slowly
MIC50 [3]: 1.61 µg/mL (≈ 2.9 µM)

CC(C)/N=c1\cc2n(-c3ccc(Cl)cc3)c3ccccc3nc-2cc1Nc1ccc(Cl)cc1 [CFZ, Clofazimine]
CFUs /ml (10^6) h0 ([1]; 0.0728 µg/ml): 239 CFUs /ml (10^6) and 141 CFUs /ml (10^6) and 148 CFUs /ml (10^6)
CFUs /ml (10^6) h24 ([1]; 0.0728 µg/ml): 116 CFUs /ml (10^6) and 112 CFUs /ml (10^6) and 124 CFUs /ml (10^6)
CFUs /ml (10^6) h72 ([1]; 0.0728 µg/ml): 176 CFUs /ml (10^6) and 192 CFUs /ml (10^6) and 207 CFUs /ml (10^6)
Relative CFUs (log10) h72 ([1]; 0.0728 µg/ml): -0.133 log10 and 0.134 log10 and 0.146 log10
CFUs /ml (10^6) h0 ([1]; 0.728 µg/ml): 158 CFUs /ml (10^6) and 182 CFUs /ml (10^6) and 101 CFUs /ml (10^6)
CFUs /ml (10^6) h24 ([1]; 0.728 µg/ml): 87 CFUs /ml (10^6) and 69 CFUs /ml (10^6) and 67 CFUs /ml (10^6)
CFUs /ml (10^6) h72 ([1]; 0.728 µg/ml): 41 CFUs /ml (10^6) and 26 CFUs /ml (10^6) and 52 CFUs /ml (10^6)

NNC(=O)c1ccncc1 [INH, Isoniazid]
CFUs /ml (10^6) h24 ([1]; 0.018 µg/ml): 182 CFUs /ml (10^6) and 160 CFUs /ml (10^6) and 171 CFUs /ml (10^6)
CFUs /ml (10^6) h72 ([1]; 0.018 µg/ml): 184 CFUs /ml (10^6) and 194 CFUs /ml (10^6) and 203 CFUs /ml (10^6)
CFUs /ml (10^6) h0 ([1]; 0.18 µg/ml): 93 CFUs /ml (10^6) and 77 CFUs /ml (10^6) and 70 CFUs /ml (10^6)
CFUs /ml (10^6) h24 ([1]; 0.18 µg/ml): 60 CFUs /ml (10^6) and 90 CFUs /ml (10^6)
CFUs /ml (10^6) h72 ([1]; 0.18 µg/ml): 78 CFUs /ml (10^6) and 97 CFUs /ml (10^6) and 70 CFUs /ml (10^6)
Relative CFUs (log10) h72 ([1]; 0.18 µg/ml): -0.076 log10 and 0.1 log10 and 0 log10
CFUs /ml (10^6) h0 ([1]; 0.36 µg/ml): 159 CFUs /ml (10^6) and 180 CFUs /ml (10^6) and 187 CFUs /ml (10^6)
CFUs /ml (10^6) h72 ([1]; 0.36 µg/ml): 0.1 CFUs /ml (10^6)
Relative CFUs (log10) h72 ([1]; 0.36 µg/ml): -3.201 log10 and -3.255 log10 and -3.272 log10
CFUs /ml (10^6) h0 ([1]; 1.8 µg/ml): 77 CFUs /ml (10^6) and 68 CFUs /ml (10^6) and 87 CFUs /ml (10^6)
CFUs /ml (10^6) h72 ([1]; 1.8 µg/ml): 0.1 CFUs /ml (10^6)
Relative CFUs (log10) h72 ([1]; 1.8 µg/ml): -2.886 log10 and -2.833 log10 and -2.94 log10
MIC50 [3]: 0.2 µg/mL (≈ 1.46 µM)

CC(=O)NC[C@H]1CN(c2ccc(N3CCOCC3)c(F)c2)C(=O)O1 [LZD, Linezolid]
CFUs /ml (10^6) h0 ([1]; 0.0844 µg/ml): 81 CFUs /ml (10^6) and 100 CFUs /ml (10^6) and 98 CFUs /ml (10^6)
CFUs /ml (10^6) h24 ([1]; 0.0844 µg/ml): 135 CFUs /ml (10^6) and 147 CFUs /ml (10^6) and 127 CFUs /ml (10^6)
CFUs /ml (10^6) h72 ([1]; 0.0844 µg/ml): 249 CFUs /ml (10^6) and 245 CFUs /ml (10^6) and 239 CFUs /ml (10^6)
Relative CFUs (log10) h72 ([1]; 0.0844 µg/ml): 0.488 log10 and 0.389 log10 and 0.387 log10
CFUs /ml (10^6) h0 ([1]; 0.844 µg/ml): 61 CFUs /ml (10^6) and 68 CFUs /ml (10^6) and 60 CFUs /ml (10^6)
CFUs /ml (10^6) h24 ([1]; 0.844 µg/ml): 63 CFUs /ml (10^6) and 74 CFUs /ml (10^6) and 92 CFUs /ml (10^6)
CFUs /ml (10^6) h72 ([1]; 0.844 µg/ml): 71 CFUs /ml (10^6) and 86 CFUs /ml (10^6) and 72 CFUs /ml (10^6)
Relative CFUs (log10) h72 ([1]; 0.844 µg/ml): 0.066 log10 and 0.102 log10 and 0.079 log10
MIC50 [3]: 1.13 µg/mL (≈ 3.35 µM)

COc1c(N2C[C@@H]3CCCN[C@@H]3C2)c(F)cc2c(=O)c(C(=O)O)cn(C3CC3)c12 [MXF, Moxifloxacin hydrocholoride]
CFUs /ml (10^6) h0 ([1]; 0.075 µg/ml): 69 CFUs /ml (10^6) and 53 CFUs /ml (10^6) and 72 CFUs /ml (10^6)
CFUs /ml (10^6) h24 ([1]; 0.075 µg/ml): 90 CFUs /ml (10^6) and 88 CFUs /ml (10^6) and 80 CFUs /ml (10^6)
CFUs /ml (10^6) h72 ([1]; 0.075 µg/ml): 159 CFUs /ml (10^6) and 165 CFUs /ml (10^6) and 147 CFUs /ml (10^6)
Relative CFUs (log10) h72 ([1]; 0.075 µg/ml): 0.363 log10 and 0.493 log10 and 0.31 log10
CFUs /ml (10^6) h0 ([1]; 0.3 µg/ml): 43 CFUs /ml (10^6) and 50 CFUs /ml (10^6)
CFUs /ml (10^6) h72 ([1]; 0.3 µg/ml): 0.1 CFUs /ml (10^6)
Relative CFUs (log10) h72 ([1]; 0.3 µg/ml): -2.633 log10 and -2.699 log10
MIC50 [3]: 0.07 µg/mL (≈ 0.174 µM)

O=[N+]([O-])c1cn2c(n1)OC[C@@H](OCc1ccc(OC(F)(F)F)cc1)C2 [PA824, Pretomanid]
MIC50 [3]: 0.15 µg/mL (≈ 0.418 µM)

CO[C@H]1/C=C/O[C@@]2(C)Oc3c(C)c(O)c4c(O)c(c(/C=N/N5CCN(C)CC5)c(O)c4c3C2=O)NC(=O)/C(C)=C\C=C\[C@H](C)[C@H](O)[C@@H](C)[C@@H](O)[C@@H](C)[C@H](OC(C)=O)[C@@H]1C [RIF, Rifampicin]
MIC50 [3]: 0.02 µg/mL (≈ 0.0243 µM)
